Laboratory results published in ChEMBL document CHEMBL1139129, “Bis-styrylpyridine and bis-styrylbenzene derivatives as inhibitors for Abeta fibril formation” (Bioorg Med Chem Lett, 2007).

tested on: HT-22; assay: Cytotoxicity against HT22 cells assessed as cell viability at 10 uM by MTT assay relative to control; assay type: functional, Homo sapiens; conditions: Mus musculus, read-out: Activity

SMILES | viability at 10 µM [%]
COc1cc(/C=C/C(=O)CC(=O)/C=C/c2ccc(O)c(OC)c2)ccc1O [CURCUMIN] | 116
CNc1ccc(/C=C/c2cccc(/C=C/c3ccc(NC)c(OC)c3)c2)cc1OC [listing 1 of 2 here] | 150

target: Amyloid-beta precursor protein (Homo sapiens, UniProt P05067); assay: Inhibition of amyloid beta 42 fibril formation by thioflavin T assay; conditions: not given
Sequence (P05067 whole entry): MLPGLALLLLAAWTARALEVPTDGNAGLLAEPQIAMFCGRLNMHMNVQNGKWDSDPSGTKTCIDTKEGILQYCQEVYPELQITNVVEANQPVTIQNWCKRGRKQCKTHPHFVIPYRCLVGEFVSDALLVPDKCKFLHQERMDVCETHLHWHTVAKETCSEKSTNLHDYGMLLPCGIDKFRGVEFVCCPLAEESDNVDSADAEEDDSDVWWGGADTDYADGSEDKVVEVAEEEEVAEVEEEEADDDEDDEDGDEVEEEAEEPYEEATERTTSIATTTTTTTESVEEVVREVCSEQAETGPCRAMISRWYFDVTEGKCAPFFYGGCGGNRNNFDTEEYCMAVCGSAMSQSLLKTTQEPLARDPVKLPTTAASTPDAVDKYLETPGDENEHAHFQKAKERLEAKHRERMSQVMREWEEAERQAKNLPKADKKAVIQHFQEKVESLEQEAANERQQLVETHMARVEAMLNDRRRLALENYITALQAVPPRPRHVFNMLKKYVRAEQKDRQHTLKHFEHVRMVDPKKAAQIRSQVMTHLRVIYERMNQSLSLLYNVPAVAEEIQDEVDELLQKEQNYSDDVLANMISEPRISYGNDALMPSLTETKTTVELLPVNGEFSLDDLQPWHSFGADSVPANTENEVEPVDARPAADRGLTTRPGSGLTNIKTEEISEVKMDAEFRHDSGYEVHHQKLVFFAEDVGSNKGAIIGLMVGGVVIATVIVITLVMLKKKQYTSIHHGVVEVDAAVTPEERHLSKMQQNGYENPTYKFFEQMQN

SMILES | IC50 [nM]
CNc1ccc(/C=C/c2cccc(/C=C/c3ccc(NC)c(O)c3)n2)cc1O | 900
CN(C)c1ccc(/C=C/c2cccc(/C=C/c3ccc(N(C)C)cc3)c2)cc1 | > 20000
CN(C)c1ccc2cc3ccc(N(C)C)cc3nc2c1 [ACRIDINE ORANGE] | 600
CNc1cc(/C=C/c2cccc(/C=C/c3ccc(OC)c(NC)c3)n2)ccc1OC | 1100
CNc1cc(/C=C/c2cccc(/C=C/c3ccc(O)c(NC)c3)n2)ccc1O | 500
O=C(O)c1cc(/C=C/c2ccc(/C=C/c3ccc(O)c(C(=O)O)c3)c(I)c2)ccc1O | 8000
COc1ccc(/C=C/c2cccc(/C=C/c3ccc(OC)c(N(C)C)c3)n2)cc1N(C)C | 900
CN(C)c1ccc(/C=C/c2cc(I)cc(/C=C/c3ccc(N(C)C)cc3)c2)cc1 | > 20000
CN(C)c1ccc(/C=C/c2cccc(/C=C/c3ccc(N(C)C)c(O)c3)n2)cc1O | 900
COc1ccc(/C=C/c2cccc(/C=C/c3ccc(OC)c(N)c3)n2)cc1N | 600
CN(C)c1cc(/C=C/c2cccc(/C=C/c3ccc(O)c(N(C)C)c3)n2)ccc1O | 2300
COc1cc(/C=C/c2cccc(/C=C/c3ccc(N(C)C)c(OC)c3)n2)ccc1N(C)C | 800
CNc1ccc(/C=C/c2cccc(/C=C/c3ccc(NC)c(OC)c3)n2)cc1OC | 500
COc1cc(/C=C/c2cccc(/C=C/c3ccc(N4CCCC4)c(OC)c3)c2)ccc1N1CCCC1 | > 20000

The remaining lines, values ahead:

IC50 [nM] | SMILES
1300 | CNc1cc(/C=C/c2cccc(/C=C/c3ccc(OC)c(NC)c3)c2)ccc1OC
600 | COc1cc(/C=C/c2cccc(/C=C/c3ccc(N)c(OC)c3)c2)ccc1N
1800 | COc1cc(/C=C/c2cc(Br)cc(/C=C/c3ccc(N)c(OC)c3)c2)ccc1N
1100 | COc1cc(/C=C/c2cc(Cl)cc(/C=C/c3ccc(O)c(OC)c3)n2)ccc1O
300 | COc1ccc(/C=C/c2cccc(/C=C/c3ccc(OC)c(N)c3)c2)cc1N
1700 | COc1cc(/C=C/c2ccc(O)c(OC)c2)nc(/C=C/c2ccc(O)c(OC)c2)c1
800 | COc1cc(/C=C/c2cccc(/C=C/c3ccc(O)c(OC)c3)n2)ccc1O
1400 | COc1cc(/C=C/c2cc(C)cc(/C=C/c3ccc(O)c(OC)c3)n2)ccc1O
100 | COc1cc(/C=C/c2cc(Br)cc(/C=C/c3ccc(O)c(OC)c3)c2)ccc1O
> 20000 | CN(C)c1ccc(/C=C/c2cc(Br)cc(/C=C/c3ccc(N(C)C)cc3)c2)cc1
700 | COc1cc(/C=C/c2cccc(/C=C/c3ccc(N)c(OC)c3)n2)ccc1N
1100 | COc1cc(/C=C/c2cc(Br)cc(/C=C/c3ccc(N)c(OC)c3)n2)ccc1N
1100 | COc1ccc(/C=C/c2cccc(/C=C/c3ccc(OC)c(N(C)C)c3)c2)cc1N(C)C
2700 | CN(C)c1cc(/C=C/c2cccc(/C=C/c3ccc(O)c(N(C)C)c3)c2)ccc1O
700 | CN(C)c1ccc(/C=C/c2cccc(/C=C/c3ccc(N(C)C)c(O)c3)c2)cc1O
1000 | COc1cc(/C=C/c2cccc(/C=C/c3ccc(N(C)C)c(OC)c3)c2)ccc1N(C)C
1900 | COc1cc(/C=C/c2cc(N(C)C)cc(/C=C/c3ccc(O)c(OC)c3)n2)ccc1O
20000 | COc1ccc(/C=C/c2cc(Br)cc(/C=C/c3ccc(OC)c(OC)c3)c2)cc1OC
1100 | COc1cc(/C=C/c2cc(Br)cc(/C=C/c3ccc(O)c(OC)c3)n2)ccc1O
600 | CNc1ccc(/C=C/c2cccc(/C=C/c3ccc(NC)c(OC)c3)c2)cc1OC [listing 2 of 2 here]
